Test results reported in patent US8642502B2, “Reversible gel-forming compositions for controlled delivery of bioactive substances” (TRGel, LLC, priority 2010, dated 2014).

How the values were obtained:
[1] = Solubility of DM monomers and polymers in solvents; format: physicochemical
From the text: The DM monomers as prepared by the methods exemplified in Examples 1-5 above were converted to polymers by the anionic polymerization reaction as illustrated in Reaction Scheme A and the physical properties of homopolymers of differing monomers are presented in Table 1. With reference to Table 1 it should be noted that all of the resulting polymers have very low poly dispersity (Mw/Mn). […] Water-soluble polymers are particularly useful in biological applications such as surface protection from non-specific adsorption. The data also illustrates that the glass transition temperature (Tg) of polymers with alkyl substituents decreases as the alkyl chain length increases. […] The DM polymers wherein R=2-methoxyethyl and R=ethoxy-2-methoxyethyl show lower critical solution temperature (LCST) behavior.

[2] = Solubility of trans-stilbene oxide in water vs 10% copolymer solution (UV spectra); format: physicochemical; details: in 10% solution of p-MDM/DGDM copolymer
Method: Solutions of trans-stilbene oxide were prepared in water and in a 10% solution of p-MDM/DGDM copolymer.

## COCCOC1C2COC(O2)C2OC12 [MEDM, 1,6:2,3-dianhydro-4-O-(2-methoxyethyl)-β-D-mannopyranose]
[1]
  solubility (in words): soluble in water

## c1ccc([C@@H]2O[C@H]2c2ccccc2)cc1 (relative stereo) [trans-stilbene oxide]
[2]
  solubility relative to solubility in water: improved

## CCCCCCCCCCO[C@H]1[C@@H]2O[C@@H]2[C@@H]2OC[C@H]1O2 [DDM, 1,6:2,3-dianhydro-4-O-decyl-β-D-mannopyranose]
[1]
  solubility (in words): soluble in hexane
